Source: patent publication US4455290A, “Inhibition of fibrin polymerization by a peptide isolated from fibrin Fragment D1” (Research Corporation, priority 1981, dated 1984)
Peptide text beside a SMILES is read from it.

Columns and labels:
fibrinogen = target: T1, fibrinogen (Homo sapiens, UniProt P02671+P02675+P02679); experiment: Equilibrium binding of 125-I D1 Peptide, fibrinogen
T1 construct: purchased Grade L
T1 sequence (P02671 20-644 isoform P02671-2 limits assumed): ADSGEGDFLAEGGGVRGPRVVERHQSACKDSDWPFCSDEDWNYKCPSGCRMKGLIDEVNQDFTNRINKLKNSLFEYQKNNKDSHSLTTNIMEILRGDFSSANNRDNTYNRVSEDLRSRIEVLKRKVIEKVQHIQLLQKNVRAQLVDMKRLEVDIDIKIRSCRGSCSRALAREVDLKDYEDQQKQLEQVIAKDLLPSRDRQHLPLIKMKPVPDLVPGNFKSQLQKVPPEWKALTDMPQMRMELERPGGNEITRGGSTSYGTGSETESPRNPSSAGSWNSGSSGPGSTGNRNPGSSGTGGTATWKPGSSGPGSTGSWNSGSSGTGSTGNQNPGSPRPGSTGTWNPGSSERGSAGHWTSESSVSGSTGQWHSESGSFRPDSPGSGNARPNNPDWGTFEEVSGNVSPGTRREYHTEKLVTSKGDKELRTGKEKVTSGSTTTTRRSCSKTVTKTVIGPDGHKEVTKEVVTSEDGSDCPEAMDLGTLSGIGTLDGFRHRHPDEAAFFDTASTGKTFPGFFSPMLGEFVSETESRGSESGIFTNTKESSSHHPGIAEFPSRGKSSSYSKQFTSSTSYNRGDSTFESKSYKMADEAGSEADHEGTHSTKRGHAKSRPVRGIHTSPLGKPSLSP
T1 sequence (P02675 31-491): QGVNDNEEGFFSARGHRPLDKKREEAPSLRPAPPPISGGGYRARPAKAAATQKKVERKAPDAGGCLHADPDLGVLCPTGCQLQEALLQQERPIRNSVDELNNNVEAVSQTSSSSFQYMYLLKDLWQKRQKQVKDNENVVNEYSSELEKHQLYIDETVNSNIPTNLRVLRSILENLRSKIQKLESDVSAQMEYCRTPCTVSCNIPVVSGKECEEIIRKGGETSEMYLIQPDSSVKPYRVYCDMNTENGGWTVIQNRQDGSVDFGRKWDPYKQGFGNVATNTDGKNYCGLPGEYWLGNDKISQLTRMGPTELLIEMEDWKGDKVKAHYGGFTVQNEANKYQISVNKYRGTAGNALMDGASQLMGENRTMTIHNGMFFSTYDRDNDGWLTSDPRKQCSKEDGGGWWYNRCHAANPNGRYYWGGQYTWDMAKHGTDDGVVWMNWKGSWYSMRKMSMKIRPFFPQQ
T1 sequence (P02679 27-437 isoform P02679-2 limits assumed): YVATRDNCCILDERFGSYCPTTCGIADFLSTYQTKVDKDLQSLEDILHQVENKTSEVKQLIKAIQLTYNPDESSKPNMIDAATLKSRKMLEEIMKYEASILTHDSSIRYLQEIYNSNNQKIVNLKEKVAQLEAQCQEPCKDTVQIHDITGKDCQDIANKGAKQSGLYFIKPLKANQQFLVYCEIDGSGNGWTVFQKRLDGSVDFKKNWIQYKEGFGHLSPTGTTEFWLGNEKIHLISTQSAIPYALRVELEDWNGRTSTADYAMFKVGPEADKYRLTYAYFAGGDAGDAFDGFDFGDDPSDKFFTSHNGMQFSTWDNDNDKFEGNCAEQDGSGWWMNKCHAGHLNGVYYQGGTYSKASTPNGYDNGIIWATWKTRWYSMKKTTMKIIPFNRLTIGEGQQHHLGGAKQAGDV
From the text: (§1) Acta 133, 376-379 (1979).

Fragment D1 = target: T2, Fragment D1 (Homo sapiens, UniProt P02671+P02675+P02679); experiment: Equilibrium binding of 125-I D1 Peptide, Fragment D1
T2 construct: consisted of three polypeptide chains of different molecular weights: /α/, 12,000; /β, 43,000; and /γ, 39,000; made in house; host or cells: not recombinant: plasmin (plasminogen + streptokinase) digest of human fibrinogen in calcium, then gel filtration
T2 sequence (P02671 124-225 limits assumed): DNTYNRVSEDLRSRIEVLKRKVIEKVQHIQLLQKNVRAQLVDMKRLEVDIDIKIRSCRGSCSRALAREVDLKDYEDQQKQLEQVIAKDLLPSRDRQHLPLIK
T2 sequence (P02675 164-491 limits assumed): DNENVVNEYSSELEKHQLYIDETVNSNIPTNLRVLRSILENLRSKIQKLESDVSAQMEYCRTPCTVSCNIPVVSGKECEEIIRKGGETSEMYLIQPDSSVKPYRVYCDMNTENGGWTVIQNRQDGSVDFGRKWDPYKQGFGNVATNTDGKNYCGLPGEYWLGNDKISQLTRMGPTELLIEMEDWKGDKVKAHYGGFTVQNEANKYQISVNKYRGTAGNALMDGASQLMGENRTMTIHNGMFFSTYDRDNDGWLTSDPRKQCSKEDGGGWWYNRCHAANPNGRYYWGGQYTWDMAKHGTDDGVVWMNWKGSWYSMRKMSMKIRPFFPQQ
T2 sequence (P02679 89-437 isoform P02679-2 limits assumed): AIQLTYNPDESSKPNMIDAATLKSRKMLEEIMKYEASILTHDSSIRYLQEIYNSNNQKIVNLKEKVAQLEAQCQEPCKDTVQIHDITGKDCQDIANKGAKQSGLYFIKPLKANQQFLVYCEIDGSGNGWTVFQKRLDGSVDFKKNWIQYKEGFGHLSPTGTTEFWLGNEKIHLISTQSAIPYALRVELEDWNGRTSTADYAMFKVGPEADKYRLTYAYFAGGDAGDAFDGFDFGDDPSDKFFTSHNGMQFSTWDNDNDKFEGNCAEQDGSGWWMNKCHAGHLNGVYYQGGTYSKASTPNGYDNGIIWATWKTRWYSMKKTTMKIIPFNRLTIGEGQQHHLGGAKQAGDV
From the text: as §1

CC[C@H](C)[C@H](NC(=O)[C@H](CCCCN)NC(=O)[C@H](CCSC)NC(=O)[C@@H](NC(=O)[C@@H](NC(=O)[C@H](CCCCN)NC(=O)[C@H](CCCCN)NC(=O)[C@H](CCSC)NC(=O)[C@H](CO)NC(=O)[C@H](Cc1ccc(O)cc1)NC(=O)[C@H](Cc1c[nH]c2ccccc12)NC(=O)[C@H](CCCNC(=N)N)NC(=O)[C@@H](N)[C@@H](C)O)[C@@H](C)O)[C@@H](C)O)C(=O)N[C@H](C(=O)N1CCC[C@H]1C(=O)N[C@@H](Cc1ccccc1)C(=O)N[C@@H](CC(N)=O)C(=O)N[C@@H](CCCNC(=N)N)C(=O)N[C@@H](CC(C)C)C(=O)N[C@H](C(=O)N[C@H](C(=O)NCC(=O)N[C@@H](CCC(=O)O)C(=O)NCC(=O)N[C@@H](CCC(N)=O)C(=O)N[C@@H](CCC(N)=O)C(=O)N[C@@H](Cc1c[nH]cn1)C(=O)N[C@@H](Cc1c[nH]cn1)C(=O)N[C@@H](CC(C)C)C(=O)NCC(=O)NCC(=O)N[C@@H](C)C(=O)N[C@@H](CCCCN)C(=O)N[C@@H](CCC(N)=O)C(=O)N[C@@H](C)C(=O)NCC(=O)N[C@@H](CC(=O)O)C(=O)N[C@H](C(=O)O)C(C)C)[C@@H](C)CC)[C@@H](C)O)[C@@H](C)CC [D1 Peptide] (H-TRWYSMKKTTMKIIPFNRLTIGEGQQHHLGGAKQAGDV-OH)
binding to fibrinogen (fibrinogen): no measurable binding
binding to Fragment D1 (Fragment D1): no measurable binding
